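Step 1: Grow cells in 96-well plates. Step 2: Expose to compound for 48 hours at 5 concentrations. Step 3: Interpolate endpoints linearly; if unreached, use highest concentration. GI50 = concentration required for 50% inhibition of growth. The concentration for full growth arrest is given as TGI.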
Assays:
Test in all cases: growth of human tumour cells (NCI), 48 h
TK-10 renal = system: TK-10 renal
HT29 colon = system: HT29 colon
OVCAR-4 ovarian = system: OVCAR-4 ovarian
HCT-116 colon = system: HCT-116 colon
KM12 colon = system: KM12 colon
BT-549 breast = system: BT-549 breast
IGROV1 ovarian = system: IGROV1 ovarian
A498 renal = system: A498 renal
SK-MEL-28 melanoma = system: SK-MEL-28 melanoma
MALME-3M melanoma = system: MALME-3M melanoma
RXF 393 renal = system: RXF 393 renal
LOX IMVI melanoma = system: LOX IMVI melanoma
ACHN renal = system: ACHN renal
M14 melanoma = system: M14 melanoma
DU-145 prostate = system: DU-145 prostate
RPMI-8226 leukemia = system: RPMI-8226 leukemia
COLO 205 colon = system: COLO 205 colon
NCI-H460 lung = system: NCI-H460 lung
HCC-2998 colon = system: HCC-2998 colon
UACC-62 melanoma = system: UACC-62 melanoma
SK-MEL-5 melanoma = system: SK-MEL-5 melanoma
SK-OV-3 ovarian = system: SK-OV-3 ovarian
SR leukemia = system: SR leukemia
A549 NSCLC = system: A549 NSCLC
HOP-92 NSCLC = system: HOP-92 NSCLC
CCRF-CEM leukemia = system: CCRF-CEM leukemia
NCI-H522 lung = system: NCI-H522 lung
SF-295 CNS = system: SF-295 CNS
MOLT-4 leukemia = system: MOLT-4 leukemia
SNB-75 CNS = system: SNB-75 CNS
MDA-MB-231 breast = system: MDA-MB-231 breast
MDA-MB-435 = system: MDA-MB-435
HOP-62 NSCLC = system: HOP-62 NSCLC
HCT-15 colon = system: HCT-15 colon
SNB-19 CNS = system: SNB-19 CNS
MCF7 breast = system: MCF7 breast
SK-MEL-2 melanoma = system: SK-MEL-2 melanoma
SF-268 CNS = system: SF-268 CNS
OVCAR-3 ovarian = system: OVCAR-3 ovarian
SW-620 colon = system: SW-620 colon
U251 CNS = system: U251 CNS
UO-31 renal = system: UO-31 renal
SN12C renal = system: SN12C renal
OVCAR-5 ovarian = system: OVCAR-5 ovarian
OVCAR-8 ovarian = system: OVCAR-8 ovarian
SF-539 CNS = system: SF-539 CNS
K-562 leukemia = system: K-562 leukemia
CAKI-1 renal = system: CAKI-1 renal
PC-3 prostate = system: PC-3 prostate
NCI-H23 lung = system: NCI-H23 lung
786-0 renal = system: 786-0 renal
HL-60(TB) leukemia = system: HL-60(TB) leukemia
NCI-H226 lung = system: NCI-H226 lung
T-47D breast = system: T-47D breast
NCI/ADR-RES ovarian = system: NCI/ADR-RES ovarian

## C=CC(C)c1cccc(C=O)c1O (stereo not given)
TK-10 renal
  GI50: 38.8 µM
  TGI: > 100 µM
HT29 colon
  GI50: 37 µM
  TGI: > 100 µM
OVCAR-4 ovarian
  GI50: 75.4 µM
  TGI: > 100 µM
HCT-116 colon
  GI50: 18.1 µM
  TGI: > 100 µM
KM12 colon
  GI50: 91.6 µM
  TGI: > 100 µM
BT-549 breast
  GI50: 23.8 µM
  TGI: > 100 µM
IGROV1 ovarian
  GI50: 37 µM
  TGI: > 100 µM
A498 renal
  GI50: > 100 µM
  TGI: > 100 µM
SK-MEL-28 melanoma
  GI50: > 100 µM
  TGI: > 100 µM
MALME-3M melanoma
  GI50: > 100 µM
  TGI: > 100 µM
RXF 393 renal
  GI50: 37 µM
  TGI: > 100 µM
LOX IMVI melanoma
  GI50: 30.7 µM
  TGI: > 100 µM
ACHN renal
  GI50: 80.9 µM
  TGI: > 100 µM
M14 melanoma
  GI50: 27.3 µM
  TGI: > 100 µM
DU-145 prostate
  GI50: 94.9 µM
  TGI: > 100 µM
RPMI-8226 leukemia
  GI50: 19.7 µM
  TGI: > 100 µM
COLO 205 colon
  GI50: > 100 µM
  TGI: > 100 µM
NCI-H460 lung
  GI50: > 100 µM
  TGI: > 100 µM
HCC-2998 colon
  GI50: > 100 µM
  TGI: > 100 µM
UACC-62 melanoma
  GI50: 44.6 µM
  TGI: > 100 µM
SK-MEL-5 melanoma
  GI50: 49.2 µM
  TGI: > 100 µM
SK-OV-3 ovarian
  GI50: > 100 µM
  TGI: > 100 µM
SR leukemia
  GI50: 3.82 µM
  TGI: > 100 µM
A549 NSCLC
  GI50: > 100 µM
  TGI: > 100 µM
HOP-92 NSCLC
  GI50: 4.93 µM
  TGI: 70.5 µM
CCRF-CEM leukemia
  GI50: 17.4 µM
  TGI: > 100 µM
NCI-H522 lung
  GI50: > 100 µM
  TGI: > 100 µM
SF-295 CNS
  GI50: > 100 µM
  TGI: > 100 µM
MOLT-4 leukemia
  GI50: 8.45 µM
  TGI: > 100 µM
SNB-75 CNS
  GI50: 35.1 µM
  TGI: > 100 µM
MDA-MB-231 breast
  GI50: 27.3 µM
  TGI: > 100 µM
MDA-MB-435
  GI50: 4.47 µM
  TGI: 41.7 µM
HOP-62 NSCLC
  GI50: 49.3 µM
  TGI: > 100 µM
HCT-15 colon
  GI50: 22 µM
  TGI: > 100 µM
SNB-19 CNS
  GI50: 74.2 µM
  TGI: > 100 µM
MCF7 breast
  GI50: 15.8 µM
  TGI: > 100 µM
SK-MEL-2 melanoma
  GI50: 54 µM
  TGI: > 100 µM
SF-268 CNS
  GI50: 35.8 µM
  TGI: > 100 µM
OVCAR-3 ovarian
  GI50: 58.3 µM
  TGI: > 100 µM
SW-620 colon
  GI50: 27.2 µM
  TGI: > 100 µM
U251 CNS
  GI50: 42.6 µM
  TGI: > 100 µM
UO-31 renal
  GI50: 57.9 µM
  TGI: > 100 µM
SN12C renal
  GI50: 53.7 µM
  TGI: > 100 µM
OVCAR-5 ovarian
  GI50: > 100 µM
  TGI: > 100 µM
OVCAR-8 ovarian
  GI50: 73.6 µM
  TGI: > 100 µM
SF-539 CNS
  GI50: 45 µM
  TGI: > 100 µM
K-562 leukemia
  GI50: 4.08 µM
  TGI: > 100 µM
CAKI-1 renal
  GI50: 45 µM
  TGI: > 100 µM
PC-3 prostate
  GI50: 26.7 µM
  TGI: > 100 µM
NCI-H23 lung
  GI50: > 100 µM
  TGI: > 100 µM
786-0 renal
  GI50: 97.1 µM
  TGI: > 100 µM
HL-60(TB) leukemia
  GI50: 19.9 µM
  TGI: > 100 µM
NCI-H226 lung
  GI50: > 100 µM
  TGI: > 100 µM
T-47D breast
  GI50: 28.8 µM
  TGI: > 100 µM
NCI/ADR-RES ovarian
  GI50: 19.6 µM
  TGI: > 100 µM

— PubChem BioAssay (NCI)
